In patent publication US7556807B2, “Signal peptides, nucleic acid molecules and methods for treatment of caries” (priority 2001, dated 2009):

What was measured:
[1] = test system: S. mutans wild-type UA159; experiment: S. mutans biofilms formed on polystyrene microtiter plates (b), SDM-glucose, safranin (first study); format: cell-based, Streptococcus mutans; details: 5 μg/ml of peptide analog; ↓ = reduced biomass compared to biofilm grown in presence of wild-type CSP
Description: Biofilms were developed in 96-well polystyrene microtiter plates. […] Wells without cells were used as blank controls. […] After the incubation, the planktonic cells were carefully removed and the plates were air dried overnight. The plates were then stained with 0.01% (wt/vol) safranin for 10 min, rinsed with sterile distilled water and air dried. Biofilms were quantified by measuring the absorbance of stained biofilms at 490 nm with a microplate reader (model 3550; Bio-Rad Laboratories, Richmond, Calif.).

[2] = test system: S. mutans comD null mutant; experiment: Genetic transformation of S. mutans comD null mutant in presence of H1; format: cell-based, Streptococcus mutans; details: different concentrations of H1
Description: An S. mutans UA159 comD null mutant was constructed by a PCR-based deletion strategy involving restriction-ligation and allelic replacement as described previously (Lau et al., 2002). The primers used to construct and confirm the S. mutans comD deletion mutant were P1-HK13 (5′-[…]-3′; SEQ ID NO:52), P2-HK13 (5′-[…]-3′; SEQ ID NO:53), P3-HK13 (5′-[…]-3′; SEQ ID NO:54), P4-HK13 (5′-AGATTATCATTGGC GGAAGCG-3′; SEQ ID NO:55), Erm-19 (5′-[…]-3′; SEQ ID NO:56), and Erm-20 (5′-[…] TAGAAT-3′; SEQ ID NO:57).
To determine if the peptide analogs had any impact on the development of genetic competence, S. mutans UA159 wild-type cells were assayed for genetic transformation. Overnight cultures of S. mutans UA159 were diluted (1:20) with prewarmed THYE broth and incubated at 37° C. in air with 5% CO2 until an optical density (OD) of approximately 0.1 at 600 nm was reached. The culture was then divided into six aliquots containing 1 μg/ml of plasmid pDL289 and different concentrations (0, 0.1, 0.5, 2, and 5 μg per ml) of peptide analogs. […] Total recipient cells were counted by spreading serial dilutions on THYE agar plates without antibiotic. Transformation efficiency was expressed as the percentage of kanamycin resistant transformants over the total number of recipient cells.

[3] = test system: S. mutans wild-type UA159; experiment: S. mutans acid resistance assay (growth in THYE at pH 7.5 and pH 5.5); format: cell-based, Streptococcus mutans; details: 5 μg/ml of peptide analog; for Growth (pH 7.5): THYE pH 7.5; for Acid resistance (pH 5.5): growth in THYE pH 5.5
Description: The effect of peptides on acid tolerance was evaluated by assessment of growth in THYE at pH 7.5 and pH 5.5. Overnight S. mutans wild-type UA159 cells were diluted (1:20) with prewarmed THYE broth and incubated at 37° C. in air with 5% CO2 until an OD600 of approximately 0.4 was reached. A 20-fold dilution was made into 400 μl of either THYE pH 7.5 or THYE pH 5.5 broth containing different concentrations (0, 0.1, 0.5, 2, and 5 μg per ml) of peptide analogs and added in the individual wells of a 100-well Bioscreen C plate in triplicate. Wells without cells were used as blank controls. A Bioscreen microbiology reader (Labsystems, Helsinki, Finland) was employed to continuously grow cells and measure cell growth for 16 h at 37° C. Measurements were taken every 20 min with shaking to prevent cell aggregation.

[4] = test system: S. mutans comC null mutant; details: exogenous addition of synthetic CSP; Li et al., 2002; cited from earlier work
[5] = test system: S. mutans comC deficient cells; experiment: Acid resistance tolerance of S. mutans comC deficient cells with added synthetic CSP (FIG. 12); format: cell-based, Streptococcus mutans; details: synthetic CSP added to culture of comC mutant; compared to parent strain NG8
Description: The ability of CSP [SEQ ID NO:11] to promote acid resistance tolerance is determined by measuring the cell survival rate of S. mutans when exposed to acidic pH. In one example, S. mutans are first grown in batch culture to assay acid tolerance response in ‘standard’ log- and stationary-phase cells by using a modification of methods described previously by Svensäter et al. Oral Microbiol. Immunol., 12:266-73. Mid-log-phase cells are obtained by transferring one volume of overnight culture into nine volumes (1:10) of fresh TYG medium (pH 7.5) and incubated at 37° C. with 5% CO2 for 2 hours. These cells are then collected by centrifugation at 8,000×g for 10 min and resuspended in 2 ml of fresh TYG (pH 5.5) at various cell densities as determined by O.D600. The cells are induced for acid adaptation by incubation at pH 5.5 for 2 h at 37° C. with 5% CO2. The adapted log-phase cells are then exposed to the killing pH. Killing pH is pre-determined by incubating unadapted, mid-log phase cells in TYG medium at pH values from 6.0 to 2.0. Stationary-phase cells are prepared by re-suspending late-log phase cells in TY medium (tryptone-yeast extract) without glucose. […] Adaptation of both log- and stationary-phase cells to acidic pH is determined by measuring the ability of bacterial cells to survive a killing pH for 3 h. […]

Row | Substance | Bioflim formation (SDM-glucose) [1] | Effect of H1 on genetic competence in comD null mutant [2] | Growth (pH 7.5) [3] | Acid resistance (pH 5.5) [3] | Biofilm phenotype of comC defective mutant [4] | Survival of low pH challenge by comC mutant [5]
1 | H1: S. mutans CSP analog, 4th residue removed from C′ (SGSLSTFFRLFNVSFTQALGK; D2 peptide analog) | no effect | ComD-dependent process | no effect | significant decrease in cell growth | – | –
2 | SGSLSTFFRLFNRSFTQALGK (MKKTLSLKNDFKEIKTDELEIIIGGSGSLSTFFRLFNRSFTQALGK; Streptococcus mutans) [CSP, reference compound] | no effect | – | ↓growth | growth | restores the wild-type phenotype | restored the ability of the mutant to survive a low pH challenge
